In patent publication US20100331233A1, “CRYSTAL OF XPA AND ERCC1 COMPLEX AND USES THEREOF” (priority 2007, published 2010):
{FAM} = 6-carboxyfluorescein (6-FAM) label

Columns and labels:
[1] = molecular target: T1, central domain of ERCC1 (ERCC196-214) (Homo sapiens, UniProt P07992); conditions: Tsodikov et al., 2005; direct titration; read-out: equilibrium binding constant for DNA binding to the central domain of ERCC1; cited from earlier work
T1 construct: His6 (N); made in house; host or cells: E. coli BL21(DE3)
T1 sequence (P07992 96-214): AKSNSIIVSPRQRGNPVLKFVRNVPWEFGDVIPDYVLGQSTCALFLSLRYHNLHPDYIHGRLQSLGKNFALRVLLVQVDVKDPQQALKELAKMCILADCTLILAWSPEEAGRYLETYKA

[2] = tested on: NER activity in XP-A (XP2OS) cell extracts; experiment: In vitro NER assay in XP-A (XP2OS) cell extract supplemented with wild-type or mutant XPA protein; format: biochemical; conditions: XPA-deficient cell extract, 200 and 800 nM XPA, cisplatin crosslink plasmid
From the text: In Vitro NER assay. […] The wild-type, […], […] and […]/[…]

DNA three-way junction = experiment: DNA binding assay (band shift) with 5'-labeled DNA three-way junction; conditions: 1 nM DNA, 4-150 nM XPA
Method: DNA binding assays. The three-way junction DNA substrate described previously (substrate 7 in Table 1 of Hohl et al., 2003, J. Biol. Chem., 278, 19500-19508) was 5′-^32P-end labeled and incubated at 1 nM concentration with various amounts of XPA in EMSA buffer (25 mM Hepes·KOH pH 8.0, 30 mM KCl, 10% glycerol, 1 mM DTT, 1 mM EDTA, 0.1 mg/ml BSA) at a reaction volume of 15 μl. After equilibration at room temperature for 30 min, the samples were loaded on a 5% (37.5:1) native polyacrylamide gel containing 0.5×TBE and electrophoresed at 90 V for 2 hrs. Gels were dried and the radioactive bands visualized by autoradiography.

[3] = molecular target: T2, ERCC1 central domain (ERCC1 96-214 / 92-214) (Homo sapiens, UniProt P07992 SEQ:96-214); experiment: FP; 2.33 uM ERCC1, 50 nM DNA; XPA67-80 peptide competes (EC50 micromolar); 20 mM Tris pH 8.0, 20 mM NaCl, 2 mM bME; conditions: tags: N-terminal His6; label: 5' 6-FAM
T2 sequence: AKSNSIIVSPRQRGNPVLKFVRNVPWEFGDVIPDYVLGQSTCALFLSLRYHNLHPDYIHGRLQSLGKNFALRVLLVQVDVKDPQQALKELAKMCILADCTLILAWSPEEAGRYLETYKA

[4] = molecular target: T3, XPA67-80 peptide (KIIDTGGGFILEEE) (Homo sapiens, UniProt P23025 SEQ:67-80); experiment: FP; peptide does not detectably bind DNA (data not shown); nonspecific anisotropy increase and quenching above 30 uM; conditions: protein: synthetic; tags: synthetic peptide, solid phase, HPLC-purified; label: 5' 6-FAM
T3 chain: KIIDTGGGFILEEE

For “DNA: 5' 6-FAM-labeled single-stranded 40mer DNA, 5'-CCGGTGGCCAGCGCTCGGCG(T)20 (DNA CCGGTGGCCAGCGCTCGGCGTTTTTTTTTTTTTTTTTTTT; DNA, 5' {FAM}, backbone not given here)”, the Kd [1] is listed as 1500 nM.

In the case of “XPA-WT: purified full length wild-type XPA protein expressed in E. coli”, the “NER activity restored by XPA protein” value [2] is reported as “robust NER activity” and the “binding to DNA three-way junction” value (DNA three-way junction) is reported as “bound with similar affinity”.

B1: 6FAM-labeled 40mer ssDNA (ssDNA)
DNA: CCGGTGGCCAGCGCTCGGCGTTTTTTTTTTTTTTTTTTTT
B1: binds [3]; no binding [4].
